# Tests used:
# TFEB = assay: qPCR of TFEB and downstream target genes in differentiated SY5Y cells; format: cell-based, human; conditions: qPCR (FIG. 6)
# Excerpt: Relative expression of TFEB and downstream target genes as assessed by qPCR from mRNA extracted from differentiated SY5Y cells treated with C1 (AIC106) versus vehicle-treated controls. Values represent fold induction versus controls, *p<0.01. Run in triplicate in 3 independent experiments.
# In vitro drug screening studies. […] We utilized for these studies a 3000 compound natural product derivative library (Timtec, Newark, DE) in […] transfected with a sensitive TFEB promotor-Gaussian luciferase construct. […] C1 is a coumarin-related compound, part of a family of natural benzopyrones found in many edible plants.
# DAF-12 = target: T1, DAF-12 (Caenorhabditis elegans, UniProt G5EFF5); assay: Mammalian one-hybrid DAF-12 activity assay (HEK293T); format: cell-based, human
# T1 construct: expressed in transfected cells; host or cells: HEK293T
# T1 sequence (G5EFF5 516-753 limits assumed): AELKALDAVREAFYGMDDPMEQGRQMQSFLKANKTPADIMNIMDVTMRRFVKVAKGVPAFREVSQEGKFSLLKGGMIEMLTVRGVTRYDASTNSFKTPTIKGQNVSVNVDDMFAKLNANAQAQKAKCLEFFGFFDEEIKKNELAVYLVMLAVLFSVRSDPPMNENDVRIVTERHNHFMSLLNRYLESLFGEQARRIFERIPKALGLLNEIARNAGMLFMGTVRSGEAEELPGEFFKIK
# Protocol: FIG. 10 illustrates that coumarin 106 (“C1”, “AIC106”) inhibits induction of the worm FXR homologue DAF-12. The ability of C1 (10 μM) to inhibit activation of the FXR worm homologue DAF-12 by its ligand dafachronic acid (Df acid); values are fold activity induction versus untreated controls; ****p<0.01 versus GW; **p<0.05 versus GW.
# FIG. 22, panels A-H: AIC106-induced HLH-30 expression is mediated by the nuclear hormone receptor DAF-12. Panel A) The upstream promoter region (2 kB) of hlh-30 was analyzed by JASPAR CORE database to determine DAF-12 binding sites (1: SEQ ID NO:1, 2: 1: SEQ ID NO:2, 3: SEQ ID NO:3, 4: SEQ ID NO:4, 5: SEQ ID NO:5, 6: SEQ ID NO:6, 7: SEQ ID NO:7, 8: SEQ ID NO:8, 9: SEQ ID NO:9, 10: SEQ ID NO:10, 11: SEQ ID NO:11, 12: SEQ ID NO:12). Panel B) Relative fold change in mRNA of hlh-30 compared to DMSO-control was quantified using qRT-PCR in young adult wild-type N2 and daf-12(rh61rh411) worms post-24 hours treatment with AIC106. [N=3 independent experiments (mean±SD). **p<0.01, by one-way ANOVA with Sidak's multiple comparisons test]. Panel C) Effects of AIC106 on DAF-12 activity was determined in a mammalian one-hybrid assay by quantifying changes in the luciferase activity of DAF-12 ligand (dafachronic acid, DA) induced treatment. [N=3 independent experiments (mean±SD). *p<0.05 **p<0.01 and ***p<0.001, by one-way ANOVA with Tukey's multiple comparisons test]. Panel D) Schematic diagram showing that addition of AIC106 or inhibition of DAF-12 ligand synthesis, which leads to un-liganded DAF-12 may result in enhanced HLH-30 expression. Panel E) Dafadine-A (DFA), a specific inhibitor of key enzyme required for synthesis of DAF-12 ligand induces HLH-30 expression. Immunoblot for GFP was performed on protein lysate of HLH-30; GFP (MAH235) young adult worms treated with DFA or DMSO-control for 24 hours. Panel F) Protection against mitochondrial toxin (FCCP) was determined by quantifying survival of young adult worms treated 24 hours with DFA or DMSO-control. [N=3 independent experiments (mean±SD). **p<0.01, by two-way ANOVA with Tukey's multiple comparisons test]. Panel G) Motor function in day-7 NL5901 worms were quantified by scoring number of thrashes for an individual worm over the period of 30 seconds (dots) in DFA and DMSO-control treatment. [N=3 independent experiments (mean±SD). **p<0.01, by unpaired t-test] […] [N=3 independent experiments (mean±SD). *p<0.05, by one-way ANOVA with Tukey's multiple comparisons test].
# FIG. 29, panels A-C: AIC106 modulates DAF-12 activity. […] Luciferase activity was measured to quantify DAF-12 activity. Panel C) Dose dependent increase in DAF-12 activity after treatment with known DAF-12 ligand, dafachronic acid (DA) was determined by quantifying luciferase activity. […]
smiles,measurement,setting,value
"O=c1oc2c3c4c(cc2c2c1CCC2)CCCN4CCC3 [C1, 2,3,6,7,10,11-Hexahydro-1H,5H-cyclopenta(3,4)(1)benzopyrano(6,7,8-ij)quinolizin-12(9H)-one]",TFEB expression,TFEB,significant dose-dependent elevations in TFEB expression
same,downstream TFEB target genes,TFEB,up-regulation of several downstream TFEB target genes
same,activation of DAF-12 elicited by dafachronic acid,DAF-12; C1 10 μM (FIG. 10),inhibit activation of the FXR homologue DAF-12
same,DAF-12 activity (luciferase),DAF-12; compound alone,did not increase DAF-12 activity
same,DA-induced DAF-12 activity,DAF-12; in combination with dafachronic acid,dose-dependent suppression of DA-induced DAF-12 activity
